# Data published in ChEMBL document CHEMBL1201862, “PubChem BioAssay data set” (2004).
# Active and inactive are the calls of the source.
# Legend:
# Format in all cases: functional
# [1] = molecular target: Activin receptor type-1 (Homo sapiens, UniProt Q04771); test: Navigating the Kinome. Panel member name: ACVR1
# [2] = molecular target: MAP kinase-activated protein kinase 2 (Homo sapiens, UniProt P49137);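 also: measured as one member of a kinome-wide kinase panel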
# [3] = molecular target: Protein kinase C zeta type (Homo sapiens, UniProt Q05513);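 also: measured as one member of a broad kinase profiling panel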
# [4] = molecular target: Cyclin-dependent kinase 2 (Homo sapiens, UniProt P24941);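 also: CDK2 measured as one member of a broad kinome profiling panel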
# [5] = molecular target: MAP kinase-interacting serine/threonine-protein kinase 2 (Homo sapiens, UniProt Q9HBH9)
# [6] = molecular target: Misshapen-like kinase 1 (Homo sapiens, UniProt Q8N4C8);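 also: kinome panel screen with MINK as the panel member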
# [7] = molecular target: Rho-associated protein kinase 1 (Homo sapiens, UniProt Q13464);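 also: measured within a broad kinome-wide panel profiling many kinases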
# [8] = molecular target: Mitogen-activated protein kinase kinase kinase kinase 2 (Homo sapiens, UniProt Q12851);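 also: measured as one member of a kinome-wide kinase panel, with MAP4K2 as the panel entry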
# [9] = molecular target: Cyclin-dependent kinase 7 (Homo sapiens, UniProt P50613);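 also: value comes from a kinome-wide kinase profiling panel in which CDK7 is one member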
# [10] = molecular target: Calcium/calmodulin-dependent protein kinase type II subunit gamma (Homo sapiens, UniProt Q13555)
# [11] = molecular target: Casein kinase I isoform gamma-1 (Homo sapiens, UniProt Q9HCP0);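 also: measured as the CSNK1G1 member of a kinome profiling panel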
# [12] = molecular target: Glycogen synthase kinase-3 alpha (Homo sapiens, UniProt P49840);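 also: GSK3A result taken from a broad kinome-wide kinase panel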
# [13] = molecular target: Serine/threonine-protein kinase PLK1 (Homo sapiens, UniProt P53350);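 also: PLK1 measured as one member of a kinome-wide profiling panel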
# [14] = molecular target: Dual specificity tyrosine-phosphorylation-regulated kinase 3 (Homo sapiens, UniProt O43781);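 also: measured as one member of a broad kinase panel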
# [15] = molecular target: G protein-coupled receptor kinase 5 (Homo sapiens, UniProt P34947); test: Navigating the Kinome. Panel member name: GPRK5
# [16] = molecular target: Calcium/calmodulin-dependent protein kinase type II subunit alpha (Homo sapiens, UniProt Q9UQM7); test: Navigating the Kinome. Panel member name: CAMK2A
# [17] = molecular target: Serine/threonine-protein kinase 3 (Homo sapiens, UniProt Q13188);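 also: measured as one member of a kinome-wide kinase panel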
# [18] = molecular target: Serine/threonine-protein kinase D2 (Homo sapiens, UniProt Q9BZL6);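 also: measured against PRKD2 as one member of a kinome-wide kinase profiling panel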
# [19] = molecular target: Glycogen synthase kinase-3 beta (Homo sapiens, UniProt P49841);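 also: value comes from a broad kinome profiling panel, with GSK3B as the panel member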
# [20] = molecular target: MAP kinase-activated protein kinase 3 (Homo sapiens, UniProt Q16644);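 also: value comes from a kinome-wide profiling panel in which MAPKAPK3 is one of the panel members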
# [21] = molecular target: RAC-gamma serine/threonine-protein kinase (Homo sapiens, UniProt Q9Y243)
# [22] = molecular target: ALK tyrosine kinase receptor (Homo sapiens, UniProt Q9UM73);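 also: ALK tested as one member of a kinase panel screen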
# [23] = molecular target: Non-receptor tyrosine-protein kinase TYK2 (Homo sapiens, UniProt P29597)
# [24] = molecular target: Tyrosine-protein kinase JAK3 (Homo sapiens, UniProt P52333)
# [25] = molecular target: Mitogen-activated protein kinase 13 (Homo sapiens, UniProt O15264)
# [26] = molecular target: Protein kinase C iota type (Homo sapiens, UniProt P41743);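 also: measured within a kinome-wide kinase panel, PRKCI as panel member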
# [27] = molecular target: Vascular endothelial growth factor receptor 3 (Homo sapiens, UniProt P35916);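 also: value from a kinome-wide profiling panel, with FLT4 as the panel member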
# [28] = molecular target: Serine/threonine-protein kinase PLK4 (Homo sapiens, UniProt O00444);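 also: PLK4 measured as one member of a kinome-wide kinase profiling panel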
# [29] = molecular target: Mast/stem cell growth factor receptor Kit (Homo sapiens, UniProt P10721);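 also: KIT entry within a kinase panel assay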
# [30] = molecular target: Fibroblast growth factor receptor 1 (Homo sapiens, UniProt P11362)
# Sequence of Tyrosine-protein kinase JAK3 (P52333 whole entry): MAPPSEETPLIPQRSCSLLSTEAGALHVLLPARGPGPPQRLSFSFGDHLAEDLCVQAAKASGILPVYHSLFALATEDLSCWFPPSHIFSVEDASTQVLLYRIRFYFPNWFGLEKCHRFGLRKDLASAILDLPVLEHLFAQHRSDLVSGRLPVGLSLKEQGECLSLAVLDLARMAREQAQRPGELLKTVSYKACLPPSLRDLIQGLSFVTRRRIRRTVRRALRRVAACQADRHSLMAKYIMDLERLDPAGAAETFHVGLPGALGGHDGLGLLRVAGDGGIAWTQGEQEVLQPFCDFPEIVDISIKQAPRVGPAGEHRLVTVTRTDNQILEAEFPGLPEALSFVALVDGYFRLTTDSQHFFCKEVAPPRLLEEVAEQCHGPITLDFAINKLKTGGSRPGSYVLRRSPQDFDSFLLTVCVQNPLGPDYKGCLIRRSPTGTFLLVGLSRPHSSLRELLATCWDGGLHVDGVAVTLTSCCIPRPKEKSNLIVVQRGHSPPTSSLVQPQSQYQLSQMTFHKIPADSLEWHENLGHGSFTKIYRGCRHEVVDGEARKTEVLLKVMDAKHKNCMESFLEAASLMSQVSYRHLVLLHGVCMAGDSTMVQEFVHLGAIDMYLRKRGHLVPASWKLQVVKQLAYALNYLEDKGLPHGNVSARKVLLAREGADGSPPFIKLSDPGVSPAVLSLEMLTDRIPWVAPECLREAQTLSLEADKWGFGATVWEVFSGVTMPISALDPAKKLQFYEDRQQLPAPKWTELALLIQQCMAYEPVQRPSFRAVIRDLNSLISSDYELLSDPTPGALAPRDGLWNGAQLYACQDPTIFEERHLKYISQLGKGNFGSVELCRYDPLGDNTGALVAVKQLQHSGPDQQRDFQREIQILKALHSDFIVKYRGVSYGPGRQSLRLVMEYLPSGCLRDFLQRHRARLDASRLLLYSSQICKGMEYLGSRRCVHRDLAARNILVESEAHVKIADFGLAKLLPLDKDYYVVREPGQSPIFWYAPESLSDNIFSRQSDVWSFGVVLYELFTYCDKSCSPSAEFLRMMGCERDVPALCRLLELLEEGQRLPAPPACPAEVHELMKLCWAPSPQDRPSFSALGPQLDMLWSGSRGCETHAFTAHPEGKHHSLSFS
# Sequence of Mast/stem cell growth factor receptor Kit (P10721 whole entry): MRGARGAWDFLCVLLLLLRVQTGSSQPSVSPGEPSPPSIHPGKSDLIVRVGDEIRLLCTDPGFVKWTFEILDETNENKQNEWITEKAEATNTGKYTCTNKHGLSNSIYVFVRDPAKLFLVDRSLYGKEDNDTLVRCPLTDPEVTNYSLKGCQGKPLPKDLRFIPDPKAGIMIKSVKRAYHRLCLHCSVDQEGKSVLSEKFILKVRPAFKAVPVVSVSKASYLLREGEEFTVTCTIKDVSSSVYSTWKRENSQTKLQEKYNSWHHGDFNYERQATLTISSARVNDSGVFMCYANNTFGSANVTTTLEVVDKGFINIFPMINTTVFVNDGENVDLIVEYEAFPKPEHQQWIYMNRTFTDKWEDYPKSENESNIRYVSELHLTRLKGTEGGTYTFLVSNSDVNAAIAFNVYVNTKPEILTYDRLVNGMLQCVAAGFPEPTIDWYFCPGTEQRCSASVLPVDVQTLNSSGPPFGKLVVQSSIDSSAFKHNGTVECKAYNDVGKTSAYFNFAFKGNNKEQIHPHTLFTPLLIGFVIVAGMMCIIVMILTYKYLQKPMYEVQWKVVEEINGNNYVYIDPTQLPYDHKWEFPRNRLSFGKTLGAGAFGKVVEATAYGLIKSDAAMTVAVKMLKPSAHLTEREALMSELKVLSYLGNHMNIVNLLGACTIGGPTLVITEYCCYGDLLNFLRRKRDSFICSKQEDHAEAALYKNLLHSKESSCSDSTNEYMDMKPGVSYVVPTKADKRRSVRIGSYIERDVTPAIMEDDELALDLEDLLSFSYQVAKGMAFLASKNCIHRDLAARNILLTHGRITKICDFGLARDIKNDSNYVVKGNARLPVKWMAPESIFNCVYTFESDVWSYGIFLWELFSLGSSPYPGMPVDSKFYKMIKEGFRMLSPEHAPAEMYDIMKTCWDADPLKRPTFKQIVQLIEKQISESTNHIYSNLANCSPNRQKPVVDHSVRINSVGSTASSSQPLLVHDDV
# Sequence of Rho-associated protein kinase 1 (Q13464 whole entry): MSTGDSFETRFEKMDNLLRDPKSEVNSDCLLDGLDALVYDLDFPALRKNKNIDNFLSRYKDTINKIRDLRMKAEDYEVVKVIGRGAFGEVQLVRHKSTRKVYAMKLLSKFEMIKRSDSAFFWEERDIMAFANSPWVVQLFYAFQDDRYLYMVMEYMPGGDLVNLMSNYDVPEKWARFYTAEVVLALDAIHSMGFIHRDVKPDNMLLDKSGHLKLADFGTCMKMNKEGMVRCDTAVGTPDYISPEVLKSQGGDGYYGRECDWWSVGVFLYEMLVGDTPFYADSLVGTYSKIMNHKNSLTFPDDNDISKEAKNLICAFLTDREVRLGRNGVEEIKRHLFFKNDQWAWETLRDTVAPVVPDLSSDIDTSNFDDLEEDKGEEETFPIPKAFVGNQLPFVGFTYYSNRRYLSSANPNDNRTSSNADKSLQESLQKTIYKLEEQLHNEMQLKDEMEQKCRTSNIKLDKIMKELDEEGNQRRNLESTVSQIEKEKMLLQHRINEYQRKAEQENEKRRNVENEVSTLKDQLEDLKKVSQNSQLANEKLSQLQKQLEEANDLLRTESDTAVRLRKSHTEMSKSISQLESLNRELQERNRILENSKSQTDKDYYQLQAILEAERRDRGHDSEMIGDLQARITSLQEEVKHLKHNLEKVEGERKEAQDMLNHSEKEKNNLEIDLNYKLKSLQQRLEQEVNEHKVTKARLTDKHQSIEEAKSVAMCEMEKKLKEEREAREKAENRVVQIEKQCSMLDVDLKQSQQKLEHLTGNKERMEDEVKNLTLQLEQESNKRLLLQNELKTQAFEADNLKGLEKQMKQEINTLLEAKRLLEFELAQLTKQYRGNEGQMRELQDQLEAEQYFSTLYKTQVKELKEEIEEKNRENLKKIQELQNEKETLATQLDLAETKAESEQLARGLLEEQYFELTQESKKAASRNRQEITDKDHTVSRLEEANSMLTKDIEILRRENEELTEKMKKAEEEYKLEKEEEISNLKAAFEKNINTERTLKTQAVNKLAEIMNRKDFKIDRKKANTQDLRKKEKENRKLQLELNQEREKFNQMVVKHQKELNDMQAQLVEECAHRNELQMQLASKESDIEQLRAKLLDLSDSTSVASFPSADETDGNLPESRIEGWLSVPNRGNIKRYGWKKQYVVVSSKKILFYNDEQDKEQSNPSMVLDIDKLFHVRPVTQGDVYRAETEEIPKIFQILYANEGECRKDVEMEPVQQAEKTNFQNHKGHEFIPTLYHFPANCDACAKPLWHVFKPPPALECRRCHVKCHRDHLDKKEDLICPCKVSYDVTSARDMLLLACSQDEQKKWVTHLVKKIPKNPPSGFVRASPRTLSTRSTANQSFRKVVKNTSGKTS
# Sequence of Serine/threonine-protein kinase 3 (Q13188 whole entry): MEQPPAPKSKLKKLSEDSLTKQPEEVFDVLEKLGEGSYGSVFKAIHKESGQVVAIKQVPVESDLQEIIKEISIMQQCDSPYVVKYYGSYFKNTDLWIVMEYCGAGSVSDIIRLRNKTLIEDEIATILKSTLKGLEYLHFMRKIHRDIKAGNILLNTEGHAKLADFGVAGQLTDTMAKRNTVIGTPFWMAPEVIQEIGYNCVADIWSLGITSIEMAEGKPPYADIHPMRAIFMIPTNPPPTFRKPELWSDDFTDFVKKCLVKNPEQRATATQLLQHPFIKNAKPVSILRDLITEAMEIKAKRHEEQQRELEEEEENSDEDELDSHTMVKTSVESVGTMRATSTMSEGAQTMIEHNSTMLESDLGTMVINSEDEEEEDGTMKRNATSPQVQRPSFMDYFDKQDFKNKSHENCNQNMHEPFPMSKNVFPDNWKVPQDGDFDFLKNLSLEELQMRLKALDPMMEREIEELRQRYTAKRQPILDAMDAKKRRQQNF
# Sequence of MAP kinase-interacting serine/threonine-protein kinase 2 (Q9HBH9 whole entry): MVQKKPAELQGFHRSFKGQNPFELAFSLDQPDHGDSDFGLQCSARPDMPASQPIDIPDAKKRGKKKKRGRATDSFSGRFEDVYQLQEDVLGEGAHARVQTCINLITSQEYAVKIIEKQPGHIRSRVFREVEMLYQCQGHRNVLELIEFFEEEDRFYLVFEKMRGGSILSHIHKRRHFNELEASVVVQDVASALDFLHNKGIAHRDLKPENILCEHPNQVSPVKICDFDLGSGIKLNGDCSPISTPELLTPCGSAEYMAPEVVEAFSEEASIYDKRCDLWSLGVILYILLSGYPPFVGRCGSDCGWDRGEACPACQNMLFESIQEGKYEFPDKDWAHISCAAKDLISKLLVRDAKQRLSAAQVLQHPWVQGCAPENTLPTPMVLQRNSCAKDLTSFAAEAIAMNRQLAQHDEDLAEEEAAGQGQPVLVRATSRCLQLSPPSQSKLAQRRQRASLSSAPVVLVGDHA
# Sequence of MAP kinase-activated protein kinase 3 (Q16644 whole entry): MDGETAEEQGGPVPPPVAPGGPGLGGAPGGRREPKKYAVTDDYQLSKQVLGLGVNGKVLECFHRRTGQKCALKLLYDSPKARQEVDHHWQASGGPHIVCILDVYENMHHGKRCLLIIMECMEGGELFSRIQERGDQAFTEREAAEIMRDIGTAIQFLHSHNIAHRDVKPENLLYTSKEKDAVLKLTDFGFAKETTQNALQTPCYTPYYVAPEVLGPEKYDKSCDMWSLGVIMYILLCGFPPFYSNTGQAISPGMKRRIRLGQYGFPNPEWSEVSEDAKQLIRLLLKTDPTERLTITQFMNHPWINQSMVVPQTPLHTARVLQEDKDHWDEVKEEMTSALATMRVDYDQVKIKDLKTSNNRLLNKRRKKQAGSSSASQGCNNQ
compound,measurement,setting,value
NNc1cc(N2CCOCC2)nc(OCCc2ccccn2)n1,Ki,[1],> 3.98 µM (inactive)
same,Ki,[2],> 7.94 µM (inactive)
same,Ki,[3],> 7.94 µM (inactive)
same,Ki,[4],> 7.94 µM (inactive)
same,Ki,[5],> 10 µM (inactive)
same,Ki,[6],> 7.94 µM (inactive)
same,Ki,[7],> 6.31 µM (inactive)
same,Ki,[8],> 5.01 µM (inactive)
same,Ki,[9],> 3.98 µM (inactive)
same,Ki,[10],> 6.31 µM (inactive)
same,Ki,[11],> 6.31 µM (inactive)
same,Ki,[12],> 7.94 µM (inactive)
same,Ki,[13],> 7.94 µM (inactive)
same,Ki,[14],> 6.31 µM (inactive)
same,Ki,[15],> 3.98 µM (inactive)
same,Ki,[16],> 7.94 µM (inactive)
same,Ki,[17],> 7.94 µM (inactive)
same,Ki,[18],> 10 µM (inactive)
same,Ki,[19],> 5.01 µM (inactive)
same,Ki,[20],> 10 µM (inactive)
same,Ki,[21],> 10 µM (inactive)
same,Ki,[22],> 6.31 µM (inactive)
same,Ki,[23],1.58 µM (active)
same,Ki,[24],> 5.01 µM (inactive)
same,Ki,[25],> 7.94 µM (inactive)
same,Ki,[26],> 5.01 µM (inactive)
same,Ki,[27],> 6.31 µM (inactive)
same,Ki,[28],> 3.98 µM (inactive)
same,Ki,[29],> 3.98 µM (inactive)
same,Ki,[30],> 3.98 µM (inactive)
